# Data as given in patent publication US20240390328A1, “PHARMACEUTICAL COMPOSITION CONTAINING AS ACTIVE INGREDIENT COMPOUND CONJUGATED TO G4 STRUCTURES OF CORONAVIRUSES FOR PREVENTION OR TREATMENT OF CORONAVIRUS INFECTIOUS DISEASES” (priority 2020, published 2024).
# Like-named read-outs stand apart in the source and are kept apart here.
# Legend:
# SARS-COV-2 [1] = assay: microbe, parasite or virus in culture; type: cell-based; details: for IC50: read-out: IC50, suppressing SARS-COV-2 infection (N protein expression); for suppression of SARS-COV-2 infection (N protein expression), in words: 0.08 to 50 μM
# HCoV-OC43 = HCoV-OC43 dose response curve analysis, virion production (plaque assay), HCT-8 cells; type: cell-based; details: 0.05 MOI, 72 hours after infection
# [2] = tested on: SARS-COV-2 RNA G4, position 353 (NsP1); assay: CD thermal melting analysis, G4 No. 1; type: binding; details: G4 No. 1, position 353, NsP1; 15 μM RNA G4, 30 μM compound
# Experimental: (§1) For melting, the samples were heated at 25 to 95° C. at 2° C./min with a data pitch of 0.5° C. CD melting analyses were performed with and without G4-binding compounds. The ratio of RNA: G4-binding compound was set to a molar ratio of 1:2. 15 μM RNA G4 was treated with 30 μM G4-binding compound and incubated at room temperature in a buffer comprising 10 mM Tris-HCl (pH 7.5) and 100 mM KCl for 30 minutes. Ellipticity was measured at 265 nm. Thereafter, data were normalized and plotted in OriginPro 2017 to calculate Tm values.
# (§2) In addition, 15 μM RNA G4 was treated with 30 μM compound and incubated, and a CD thermal melting curve of RNA G4 (15 μM) was obtained in the presence or absence of the G4-binding compound. Furthermore, the effect of G4-binding compounds on the stability of SARS-COV-2 G4 was confirmed by measuring the difference in melting temperature (ΔTm). The results are illustrated in FIGS. 6A and 6B.
# [3] = tested on: SARS-COV-2 RNA G4, position 644 (NsP1); assay: CD thermal melting analysis, G4 No. 2; type: binding; details: G4 No. 2, position 644, NsP1; 15 μM RNA G4, 30 μM compound
# Experimental: as §1, §2
# [4] = tested on: SARS-COV-2 RNA G4, position 1463 (NsP2); assay: CD thermal melting analysis, G4 No. 3; type: binding; details: G4 No. 3, position 1463, NsP2; 15 μM RNA G4, 30 μM compound
# Experimental: as §1, §2
# [5] = tested on: SARS-COV-2 RNA G4, position 1574 (NsP2); assay: CD thermal melting analysis, G4 No. 4; type: binding; details: G4 No. 4, position 1574, NsP2; 15 μM RNA G4, 30 μM compound
# Experimental: as §1, §2
# [6] = tested on: SARS-COV-2 RNA G4, position 2714 (NsP2 + NsP3); assay: CD thermal melting analysis, G4 No. 5; type: binding; details: G4 No. 5, position 2714, NsP2 + NsP3; 15 μM RNA G4, 30 μM compound
# Experimental: as §1, §2
# [7] = tested on: SARS-COV-2 RNA G4, position 3467 (NsP3); assay: CD thermal melting analysis, G4 No. 6; type: binding; details: G4 No. 6, position 3467, NsP3; 15 μM RNA G4, 30 μM compound
# Experimental: as §1, §2
# [8] = tested on: SARS-COV-2 RNA G4, position 4261 (NsP3); assay: CD thermal melting analysis, G4 No. 8; type: binding; details: G4 No. 8, position 4261, NsP3; 15 μM RNA G4, 30 μM compound
# Experimental: as §1, §2
# [9] = tested on: SARS-COV-2 RNA G4, position 10261 (NsP5); assay: CD thermal melting analysis, G4 No. 10; type: binding; details: G4 No. 10, position 10261, NsP5; 15 μM RNA G4, 30 μM compound
# Experimental: as §1, §2
# [10] = tested on: SARS-COV-2 RNA G4, position 14947 (NsP12); assay: CD thermal melting analysis, G4 No. 12; type: binding; details: G4 No. 12, position 14947, NsP12; 15 μM RNA G4, 30 μM compound
# Experimental: as §1, §2
# [11] = tested on: SARS-COV-2 RNA G4, position 18296 (NsP12); assay: CD thermal melting analysis, G4 No. 15; type: binding; details: G4 No. 15, position 18296, NsP12; 15 μM RNA G4, 30 μM compound
# Experimental: as §1, §2
# [12] = tested on: SARS-COV-2 RNA G4, position 25197 (Surface glycoprotein); assay: CD thermal melting analysis, G4 No. 19; type: binding; details: G4 No. 19, position 25197, Surface glycoprotein; 15 μM RNA G4, 30 μM compound
# Experimental: as §1, §2
# [13] = tested on: SARS-COV-2 RNA G4, position 26746 (Membrane protein); assay: CD thermal melting analysis, G4 No. 21; type: binding; details: G4 No. 21, position 26746, Membrane protein; 15 μM RNA G4, 30 μM compound
# Experimental: as §1, §2
# [14] = tested on: SARS-COV-2 RNA G4, position 28781 (Nucleocapsid protein); assay: CD thermal melting analysis, G4 No. 22; type: binding; details: G4 No. 22, position 28781, Nucleocapsid protein; 15 μM RNA G4, 30 μM compound
# Experimental: as §1, §2
# [15] = tested on: SARS-COV-2 RNA G4, position 28903 (Nucleocapsid protein); assay: CD thermal melting analysis, G4 No. 23; type: binding; details: G4 No. 23, position 28903, Nucleocapsid protein; 15 μM RNA G4, 30 μM compound
# Experimental: as §1, §2
# [16] = tested on: 25 G4s predicted for SARS-COV-2; assay: CD thermal melting analysis, comparison of ΔTm over all G4s; type: binding
# HEK293T cells = assay: Cell viability analysis (EZ Cytox), HEK293T cells; type: cell-based, Human; details: at 75 µM, after 48 hours
# Experimental: (§3) Human embryonic kidney (HEK293T) cells and Vero cells were maintained in high-glucose Dulbecco's Modified Eagle's Medium (DMEM) supplemented with 10% fetal bovine serum (FBS) and 1% penicillin-streptomycin, and cultured in a humidified incubator at 37° C. and 5% CO2.
# (§4) Cytotoxicity was analyzed using an EZ Cytox assay kit (DogenBio, Korea). HEK293T and Vero cells were put into a 96-well plate at a density of 2×10^4 cells/well in a medium volume of 100 μl/well and cultured at 37° C. for 24 hours. After 24 hours, the cells were treated with the G4-binding compound at various concentrations (0.1, 0.5, 1, 2.5, 5.5, 7.5, 10, 25, 50, and 75 μM) and cultured at 37° C. for 24 hours or 48 hours. Cell viability (%) was calculated by measuring the absorbance value at 455 nm (Luminescence multi-mode microplate reader Synergy™ Neo2) and using the following Equation 1. All experiments were performed in triplicate, and cells untreated with the compound were used as a control. DMEM with the EZ Cytox reagent was used as a blank.
# (§5) The toxicity of PDS and PhenDC3 was confirmed in HEK293T cells and Vero cells. The results are illustrated in FIGS. 7A to 7D.
# Vero cells = assay: Cell viability analysis (EZ Cytox), Vero cells; type: cell-based; details: up to 75 μM after 48 hours
# Experimental: as §3, §4, §5
# N1-WT-G4-353 (Nsp1 G4) = assay: In-vitro transcription/translation (IVT) analysis, EYFP reporter western blot, N1-WT-G4-353; type: biochemical, SARS-COV-2
# N1-WT-G4-644 (Nsp1 G4) = assay: In-vitro transcription/translation (IVT) analysis, EYFP reporter western blot, N1-WT-G4-644; type: biochemical, SARS-COV-2; details: N1-WT-G4-644, compound at 5 μM
# N1-WT-G4-3467 (Nsp3 G4) = assay: In-vitro transcription/translation (IVT) analysis, EYFP reporter western blot, N1-WT-G4-3467; type: biochemical, SARS-COV-2; details: N1-WT-G4-3467, compound at 50 μM
# N1-Mut-G4-3467 = type: biochemical, SARS-COV-2; details: N1-Mut-G4-3467, 5, 15, 25 and 50 μM
# SARS-COV-2 [17] = assay: microbe, parasite or virus in culture; type: cell-based; details: Vero cells, read-out: IC50, virion production
# [18] = Severe acute respiratory syndrome coronavirus 2, Vero cells, 0.0125 MOI, 24 hours
smiles,measurement,setting,value
"CCC(CC)COC(=O)[C@H](C)N[P@](=O)(OC[C@H]1O[C@@](C#N)(c2ccc3c(N)ncnn23)[C@H](O)[C@@H]1O)Oc1ccccc1 [remdesivir, reference compound]",IC50,"SARS-COV-2 [1]; Severe acute respiratory syndrome coronavirus 2, Vero, 24 h",8.78 µM
"CCC1=C(C)c2cc3[nH]c(cc4nc(cc5c(CC)c(C)c(cc1n2)n5C)C(C)=C4CCC(=O)O)c(CCC(=O)O)c3C [NMM, 3-[18-(2-carboxyethyl)-7,12-diethyl-3,8,13,17,22-pentamethyl-23H-porphyrin-2-yl]propanoic acid]","suppression of SARS-COV-2 infection (N protein expression), in words",SARS-COV-2 [1]; Vero cells,suppressed SARS-COV-2 infection at high concentrations
same,IC50,HCoV-OC43,2.1 µM
"C[n+]1ccccc1-c1c2nc(c(-c3cccc[n+]3C)c3ccc([nH]3)c(-c3cccc[n+]3C)c3nc(c(-c4cccc[n+]4C)c4ccc1[nH]4)C=C3)C=C2 [TMPyP2, 5,10,15,20-tetrakis(1-methylpyridin-1-ium-2-yl)-21,23-dihydroporphyrin]",IC50,HCoV-OC43,11.7 µM
"CCN(CC)CCCC(C)Nc1ccnc2cc(Cl)ccc12 (stereo not drawn) [chloroquine, reference compound]",IC50,SARS-COV-2 [1]; [18],9.63 µM
"Cc1cccc(C)c1OCC(=O)N[C@@H](Cc1ccccc1)[C@@H](O)C[C@H](Cc1ccccc1)NC(=O)[C@H](C(C)C)N1CCCNC1=O [lopinavir, reference compound]",IC50,SARS-COV-2 [1]; [18],12.1 µM
"CN(C)c1ccc(Nc2c3ccc(NC(=O)CCN4CCCC4)cc3nc3cc(NC(=O)CCN4CCCC4)ccc23)cc1 [BRACO19, N-[9-[4-(dimethylamino)anilino]-6-(3-pyrrolidin-1-ylpropanoylamino)acridin-3-yl]-3-pyrrolidin-1-ylpropanamide]","suppression of SARS-COV-2 infection (N protein expression), in words",SARS-COV-2 [1]; Vero cells,suppressed SARS-COV-2 infection at high concentrations
"C[n+]1ccc(-c2c3nc(c(-c4cc[n+](C)cc4)c4ccc([nH]4)c(-c4cc[n+](C)cc4)c4ccc([nH]4)c(-c4cc[n+](C)cc4)c4nc2C=C4)C=C3)cc1 [TMPyP4, 5,10,15,20-tetrakis(1-methylpyridin-1-ium-4-yl)-21,23-dihydroporphyrin]",IC50,HCoV-OC43,2.8 µM
"C[n+]1cc(NC(=O)c2ccc3ccc4ccc(C(=O)Nc5cc6ccccc6[n+](C)c5)nc4c3n2)cc2ccccc21 [PhenDC3, 2-N, 9-N-bis(1-methylquinolin-1-ium-3-yl)-1,10-phenanthroline-2,9-dicarboxamide]",Tm in ° C. with compound,[2],82.00 °C
same,ΔTm,[2],10.41 °C
same,Tm in ° C. with compound,[3],71.44 °C
same,ΔTm,[3],23.71 °C
same,Tm in ° C. with compound,[4],91.3 °C
same,ΔTm,[4],35.78 °C
same,Tm in ° C. with compound,[5],47.74 °C
same,ΔTm,[5],−5.64 °C
same,Tm in ° C. with compound,[6],91.7 °C
same,ΔTm,[6],20.56 °C
same,Tm in ° C. with compound,[7],98.81 °C
same,ΔTm,[7],33.25 °C
same,Tm in ° C. with compound,[8],85.41 °C
same,ΔTm,[8],35.1 °C
same,Tm in ° C. with compound,[9],63.49 °C
same,ΔTm,[9],15.6 °C
same,Tm in ° C. with compound,[10],82.96 °C
same,ΔTm,[10],25.75 °C
same,Tm in ° C. with compound,[11],86.32 °C
same,ΔTm,[11],27.49 °C
same,Tm in ° C. with compound,[12],57.51 °C
same,ΔTm,[12],−13.68 °C
same,Tm in ° C. with compound,[13],79.68 °C
same,ΔTm,[13],17.02 °C
same,Tm in ° C. with compound,[14],70.40 °C
same,ΔTm,[14],5.7 °C
same,Tm in ° C. with compound,[15],60.21 °C
same,ΔTm,[15],3.1 °C
same,"effect on stability of SARS-COV-2 G4 (ΔTm), in words","[16]; 15 μM RNA G4, 30 μM compound, FIGS. 6A and 6B",significantly stabilized most G4s
same,proportion of the G4s with ΔTm>20° C.,[16]; among the 25 G4s predicted for SARS-COV-2,72%
same,number of G4s Destabilized,[16]; of the 25 SARS-COV-2 G4s,2
same,"reduction in viability, HEK293T cells",HEK293T cells,25%
same,cytotoxicity in Vero cells,Vero cells,no cytotoxicity was observed
same,EYFP expression reduced by,"N1-WT-G4-353 (Nsp1 G4); N1-WT-G4-353, compound at 50 μM",90%
same,suppressing EYFP reporter expression,"N1-WT-G4-353 (Nsp1 G4); N1-WT-G4-353, concentrations less than 50 μM",not effective
same,EYFP expression reduced by,N1-WT-G4-644 (Nsp1 G4),50%
same,reduction in EYFP expression,N1-WT-G4-3467 (Nsp3 G4),70%
same,"EYFP expression, concentration-dependent suppression",N1-Mut-G4-3467,not suppressed
same,IC50,SARS-COV-2 [17]; 24 hours after infection,24.5 µM
same,IC50,SARS-COV-2 [17]; 48 hours after infection,23.2 µM
